Test results taken from patent US20060069132A1, “Azolecarboxamide herbicides” (priority 2004, published 2006).

Assays:
Surinam grass = assay: Test C pre-/postemergence herbicide test; assay type: in vivo, Urochloa decumbens; details: for Plant response rating (0 = no effect, 100 = complete control), Surinam Grass: 62 g ai/ha; for Plant response rating (0 = no effect, 100 = complete control), Surinam Grass / Plant response rating, Surinam Grass: preemergence; for Plant response rating, Surinam Grass: 125 g ai/ha, scale 0 (no effect) to 100 (complete control), visual, 12 to 14 days; for Surinam Grass plant response rating: Preemergence, 500 g ai/ha, scale 0 to 100, 0 no effect, 100 complete control
Procedure, shortened: (§1)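 Seeds were planted and sprayed preemergence with test chemicals in a non-phytotoxic solvent mixture containing surfactant; postemergence treatments went onto plants 2 to 18 cm tall (1- to 4-leaf stage). After 12 to 14 days in a greenhouse, injury was rated visually against untreated controls on a 0–100 scale.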

corn = assay: Test C pre-/postemergence herbicide test; assay type: in vivo, Zea mays; details: for Plant response rating (0 = no effect, 100 = complete control), Corn: 62 g ai/ha; for Plant response rating (0 = no effect, 100 = complete control), Corn / Plant response rating, Corn: preemergence; for Plant response rating, Corn: visual, 12 to 14 days; for Corn plant response rating: Preemergence, 500 g ai/ha, scale 0 to 100, 0 no effect, 100 complete control
Procedure, shortened: as §1

[1] = system: smallflower umbrella sedge; assay: Test C flooded paddy test; assay type: in vivo, Cyperus difformis; details: for Plant response rating, Sedge, Umbrella: 500 g ai/ha, visual rating after 12 to 14 days
eastern black nightshade = assay: Test C pre-/postemergence herbicide test; assay type: in vivo, Solanum ptycanthum; details: for Plant response rating (0 = no effect, 100 = complete control), Nightshade: 62 g ai/ha; for Plant response rating (0 = no effect, 100 = complete control), Nightshade / Plant response rating, Nightshade: preemergence; for Plant response rating, Nightshade: 125 g ai/ha, scale 0 (no effect) to 100 (complete control), visual, 12 to 14 days; for Nightshade plant response rating: Preemergence, 500 g ai/ha, scale 0 to 100, 0 no effect, 100 complete control
Procedure, shortened: as §1

morningglory = assay: Test A pre-/postemergence herbicide test; assay type: in vivo, Ipomoea spp.
Procedure, shortened: (§2)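 Seeds sown in sandy loam received a preemergence directed soil spray of compound in non-phytotoxic solvent with surfactant; postemergence plants (2–10 cm, one- to two-leaf stage) were sprayed to runoff at the same time. After ~10 days in greenhouse, injury was rated visually versus untreated controls (0 = no effect, 100 = complete control).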

barnyardgrass = assay: Test A pre-/postemergence herbicide test; assay type: in vivo, Echinochloa crus-galli
Procedure, shortened: as §2

[2] = system: common (oilseed) sunflower; assay: Test C pre-/postemergence herbicide test; assay type: in vivo, Helianthus annuus; details: for Plant response rating (0 = no effect, 100 = complete control), Sunflower: 62 g ai/ha; for Plant response rating (0 = no effect, 100 = complete control), Sunflower / Plant response rating, Sunflower: preemergence; for Plant response rating, Sunflower: 125 g ai/ha, scale 0 (no effect) to 100 (complete control), visual, 12 to 14 days; for Sunflower plant response rating: Preemergence, 500 g ai/ha, scale 0 to 100, 0 no effect, 100 complete control
Procedure, shortened: as §1

johnsongrass = assay: Test C pre-/postemergence herbicide test; assay type: in vivo, Sorghum halepense; details: for Plant response rating (0 = no effect, 100 = complete control), Johnsongrass: 62 g ai/ha; for Plant response rating (0 = no effect, 100 = complete control), Johnsongrass / Plant response rating, Johnsongrass: preemergence; for Plant response rating, Johnsongrass: 125 g ai/ha, scale 0 (no effect) to 100 (complete control), visual, 12 to 14 days; for Johnsongrass plant response rating: Preemergence, 500 g ai/ha, scale 0 to 100, 0 no effect, 100 complete control
Procedure, shortened: as §1

velvetleaf = assay: Test C pre-/postemergence herbicide test; assay type: in vivo, Abutilon theophrasti; details: for Plant response rating, Velvetleaf: 125 g ai/ha, scale 0 (no effect) to 100 (complete control), visual, 12 to 14 days, preemergence; for Velvetleaf plant response rating: Preemergence, 500 g ai/ha, scale 0 to 100, 0 no effect, 100 complete control
Procedure, shortened: as §1

woolly cupgrass = assay: Test C pre-/postemergence herbicide test; assay type: in vivo, Eriochloa villosa; details: for Plant response rating (0 = no effect, 100 = complete control), Cupgrass, Woolly: 62 g ai/ha; for Plant response rating (0 = no effect, 100 = complete control), Cupgrass, Woolly / Plant response rating, Cupgrass, Woolly: preemergence; for Plant response rating, Cupgrass, Woolly: visual, 12 to 14 days; for Cupgrass, Woolly plant response rating: Preemergence, 500 g ai/ha, scale 0 to 100, 0 no effect, 100 complete control
Procedure, shortened: as §1

[3] = 125 g ai/ha, scale 0 (no effect) to 100 (complete control)
[4] = 250 g ai/ha, scale 0 to 100 (0 no effect, 100 complete control)
[5] = 62 g ai/ha, scale 0 to 100 (0 no effect, 100 complete control)
[6] = 125 g ai/ha, scale of 0 to 100, 0 is no effect, 100 is complete control
[7] = 250 g ai/ha, scale of 0 to 100, 0 is no effect, 100 is complete control
[8] = scale 0 to 100 (0 no effect, 100 complete control)
[9] = Postemergence, 500 g ai/ha, 0 to 100 scale, 0 no effect, 100 complete control
[10] = Postemergence, 2000 g ai/ha, 0 to 100 scale, 0 no effect, 100 complete control
[11] = Preemergence, 500 g ai/ha, visual rating, 0 to 100 scale (0 no effect, 100 complete control)
[12] = Preemergence, 2000 g ai/ha, 0 to 100 scale, 0 no effect, 100 complete control

Row | SMILES | Plant response rating (0 = no effect, 100 = complete control), Surinam Grass (Surinam grass) | Plant response rating, Surinam Grass (Surinam grass) | Surinam Grass plant response rating (Surinam grass) | Plant response rating (0 = no effect, 100 = complete control), Corn (corn) | Plant response rating, Corn (corn; [3]) | Plant response rating, Corn (corn; [4]) | Corn plant response rating (corn) | Sedge, Umbrella plant response rating [1, 5] | Sedge, Umbrella plant response rating [1, 6] | Sedge, Umbrella plant response rating [1, 7] | Plant response rating, Sedge, Umbrella [1, 8] | Plant response rating (0 = no effect, 100 = complete control), Nightshade (eastern black nightshade) | Plant response rating, Nightshade (eastern black nightshade) | Nightshade plant response rating (eastern black nightshade) | Plant response rating, Morningglory (morningglory; [10]) | Morningglory plant response rating (morningglory; [11]) | Morningglory plant response rating (morningglory; [12]) | Plant response rating, Barnyardgrass (barnyardgrass; [10]) | Barnyardgrass plant response rating (barnyardgrass; [11]) | Barnyardgrass plant response rating (barnyardgrass; [12]) | further results
1 | CCCN1CCc2c(NC(=O)c3cc(C(C)(C)C)nn3CC)cccc2C1=O [Compound 65] | 0 | 0 | 50 | 0 | 0 | 10 | 20 | 0 | 20 | 75 | 80 | 50 | 90 | 100 | 10 | 5 | 5 | 75 | 55 | 70 | Plant response rating, Morningglory (morningglory; [9]): 10; Plant response rating, Barnyardgrass (barnyardgrass; [9]): 45; Plant response rating (0 = no effect, 100 = complete control), Sunflower [2]: 0; Plant response rating, Sunflower [2]: 0; Sunflower plant response rating [2]: 0; Plant response rating (0 = no effect, 100 = complete control), Johnsongrass (johnsongrass): 10; Plant response rating, Johnsongrass (johnsongrass): 40; Johnsongrass plant response rating (johnsongrass): 100; Plant response rating, Velvetleaf (velvetleaf): 0; Velvetleaf plant response rating (velvetleaf): 60; Plant response rating (0 = no effect, 100 = complete control), Cupgrass, Woolly (woolly cupgrass): 0; Plant response rating, Cupgrass, Woolly (woolly cupgrass; [3]): 0; Plant response rating, Cupgrass, Woolly (woolly cupgrass; [4]): 10; Cupgrass, Woolly plant response rating (woolly cupgrass): 10
2 | CCOC(=O)c1cccc(NC(=O)c2cc(C(C)(C)C)nn2CC)c1C [Compound 88] | 10 | 20 | 95 | 0 | 5 | 5 | 60 | 0 | 50 | 80 | 80 | 40 | 90 | 95 | 40 | 10 | 40 | 100 | 75 | 90 | Morningglory plant response rating (morningglory; [9]): 35; Barnyardgrass plant response rating (barnyardgrass; [9]): 85; Plant response rating (0 = no effect, 100 = complete control), Sunflower [2]: 0; Plant response rating, Sunflower [2]: 0; Sunflower plant response rating [2]: 0; Plant response rating (0 = no effect, 100 = complete control), Johnsongrass (johnsongrass): 0; Plant response rating, Johnsongrass (johnsongrass): 20; Johnsongrass plant response rating (johnsongrass): 70; Plant response rating, Velvetleaf (velvetleaf): 0; Velvetleaf plant response rating (velvetleaf): 50; Plant response rating (0 = no effect, 100 = complete control), Cupgrass, Woolly (woolly cupgrass): 20; Plant response rating, Cupgrass, Woolly (woolly cupgrass; [3]): 30; Plant response rating, Cupgrass, Woolly (woolly cupgrass; [4]): 80; Cupgrass, Woolly plant response rating (woolly cupgrass): 90
